Test results from patent publication US20230293517A1, “ANTAGONIST COMPOUNDS” (AdoRx Therapeutics Limited, priority 2020, published 2023).

Tests used:
[1] = biological target: human Adenosine A1 receptor (Homo sapiens (Human), UniProt P30542); experiment: Adenosine receptor TR-FRET binding assay (A1); details: inhibition of binding of 100 nM CA200645, CHO cell membranes
Procedure, shortened: (§1)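 Terbium-labelled human receptors in CHO cell membranes were incubated 2 h at room temperature with test compounds and fluorescent XAC tracer CA200645 (30 nM for A2b; 100 nM for A1, A2a, A3). TR-FRET 665/620 nm ratio gave specific binding; Ki derived from IC50 by Cheng–Prusoff.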

[2] = system: CD8+T cells in human whole blood; experiment: Measurement of pCREB in CD8+T cells in human whole blood; format: cell-based; details: 3 μM NECA, rolipram
Procedure, shortened: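 Heparinised human whole blood pre-incubated 20 min at 37 °C with serially diluted A2a antagonists plus rolipram, then stimulated 60 min with 3 μM NECA (final). After fixation and red-cell lysis, white cells were permeabilized and stained for phospho-CREB and CD8; pCREB in CD8+ T cells measured by flow cytometry.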

[3] = biological target: human Adenosine A3 receptor (Homo sapiens (Human), UniProt P0DMS8); experiment: Adenosine receptor TR-FRET binding assay (A3); details: inhibition of binding of 100 nM CA200645, CHO cell membranes
Procedure, shortened: as §1

[4] = biological target: human Adenosine A2b receptor (Homo sapiens (Human), UniProt P29275); experiment: Adenosine receptor TR-FRET binding assay (A2b); details: TR-FRET, inhibition of binding of 30 nM CA200645, CHO cell membranes
Procedure, shortened: as §1

[5] = system: human PBMCs; experiment: CD3/CD28 stimulated IL-2 release NECA reversal assay in human PBMCs; format: cell-based; details: PBMC, 1 uM NECA, 24 hours, IL-2 in culture supernatant
Procedure, shortened: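 PBMCs from citrated healthy-donor blood plated at 50,000 cells/well on 1 ug/ml CD3 antibody with 1 ug/ml CD28 antibody, 1 uM NECA and 0.003-10 μM antagonist (final), 24 h at 37° C. Supernatant IL-2 measured by MSD immunoassay; % inhibition set against no-NECA control wells as 100%.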

[6] = biological target: human Adenosine A2a receptor (Homo sapiens (Human), UniProt P29274); experiment: Adenosine receptor TR-FRET binding assay (A2a); details: inhibition of binding of 100 nM CA200645, CHO cell membranes
Procedure, shortened: as §1

Sequence of human Adenosine A2a receptor (P29274 whole entry): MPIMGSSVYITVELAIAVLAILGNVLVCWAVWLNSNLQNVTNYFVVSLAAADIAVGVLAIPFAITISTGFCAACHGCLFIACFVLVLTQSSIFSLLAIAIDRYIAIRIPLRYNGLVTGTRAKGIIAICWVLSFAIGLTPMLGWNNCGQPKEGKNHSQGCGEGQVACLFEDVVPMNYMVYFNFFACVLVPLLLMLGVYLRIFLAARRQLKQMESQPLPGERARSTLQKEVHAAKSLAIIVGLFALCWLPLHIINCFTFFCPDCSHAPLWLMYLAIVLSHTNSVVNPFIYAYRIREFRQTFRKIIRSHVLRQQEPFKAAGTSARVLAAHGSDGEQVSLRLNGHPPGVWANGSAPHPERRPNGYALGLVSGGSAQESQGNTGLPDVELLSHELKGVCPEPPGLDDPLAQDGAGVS
Sequence of human Adenosine A2b receptor (P29275 whole entry): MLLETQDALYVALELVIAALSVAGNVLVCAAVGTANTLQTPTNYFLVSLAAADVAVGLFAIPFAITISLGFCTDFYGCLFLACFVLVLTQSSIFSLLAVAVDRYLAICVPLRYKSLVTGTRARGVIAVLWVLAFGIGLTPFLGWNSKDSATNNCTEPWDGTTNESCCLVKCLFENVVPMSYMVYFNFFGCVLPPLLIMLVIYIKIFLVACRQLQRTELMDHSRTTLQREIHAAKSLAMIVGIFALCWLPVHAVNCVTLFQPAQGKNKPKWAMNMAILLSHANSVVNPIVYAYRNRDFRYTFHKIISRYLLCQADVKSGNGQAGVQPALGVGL
Sequence of human Adenosine A3 receptor (P0DMS8 whole entry): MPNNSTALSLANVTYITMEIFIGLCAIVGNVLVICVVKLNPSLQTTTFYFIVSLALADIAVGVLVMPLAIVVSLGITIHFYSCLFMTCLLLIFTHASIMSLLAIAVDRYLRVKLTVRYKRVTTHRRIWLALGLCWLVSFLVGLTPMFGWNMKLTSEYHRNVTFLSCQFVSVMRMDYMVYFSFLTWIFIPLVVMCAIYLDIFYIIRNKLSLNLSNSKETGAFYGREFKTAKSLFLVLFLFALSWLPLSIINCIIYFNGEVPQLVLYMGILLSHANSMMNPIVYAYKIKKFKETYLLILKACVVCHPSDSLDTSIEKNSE
Sequence of human Adenosine A1 receptor (P30542 whole entry): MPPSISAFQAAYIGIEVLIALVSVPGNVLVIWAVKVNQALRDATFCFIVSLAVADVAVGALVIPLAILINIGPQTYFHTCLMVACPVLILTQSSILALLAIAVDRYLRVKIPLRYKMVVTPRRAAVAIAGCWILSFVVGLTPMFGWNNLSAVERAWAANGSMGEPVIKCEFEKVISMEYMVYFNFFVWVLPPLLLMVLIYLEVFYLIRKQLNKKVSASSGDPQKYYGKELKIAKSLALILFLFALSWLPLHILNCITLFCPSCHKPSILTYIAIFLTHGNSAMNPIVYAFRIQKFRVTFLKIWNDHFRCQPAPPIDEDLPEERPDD

SMILES | Ki [1] [nM] | IC50 [2] [nM] | Ki [3] [nM] | Ki [4] [nM] | Ki [6] [nM] | IC50 [5] [nM]
CN=S1(=O)CCN(C(=O)Nc2nc(-c3cccc(C#N)c3)c(-c3cc(C)nc(C)c3)s2)CC1 [Example 6.32, N-[4-(3-Cyanophenyl)-5-(2,6-dimethyl-4-pyridyl)thiazol-2-yl]-1-methylimino-1-oxo-1,4-thiazinane-4-carboxamide] | 109 | 230 | 719 | 5.4 | 0.83 | 8.6
Cc1cc(-c2sc(NC(=O)N3CCC4(CC3)CC(=O)N(C)C4)nc2-c2cccc(C#N)c2)cc(C)n1 [Example 6.38, N-[4-(3-Cyanophenyl)-5-(2,6-dimethyl-4-pyridyl)thiazol-2-yl]-2-methyl-3-oxo-2,8-diazaspiro[4.5]decane-8-carboxamide] | 170 | 580 | 278 | 3.6 | 0.83 | 6
Cc1cc(-c2sc(NC(=O)N3CCC4(CCC(=O)NC4)CC3)nc2-c2cccc(C#N)c2)cc(C)n1 [Example 6.40, N-[4-(3-Cyanophenyl)-5-(2,6-dimethyl-4-pyridyl)thiazol-2-yl]-3-oxo-2,9-diazaspiro[5.5]undecane-9-carboxamide] | 110 | 80 | 330 | 4.6 | 0.41 | 2.2
Cc1cc(-c2sc(NC(=O)N3CCC(C#N)(C(C)(C)O)CC3)nc2-c2cccc(C#N)c2)cc(C)n1 [Example 6.41, 4-Cyano-N-[4-(3-cyanophenyl)-5-(2,6-dimethyl-4-pyridyl)thiazol-2-yl]-4-(1-hydroxy-1-methyl-ethyl)piperidine-1-carboxamide] | 111 | 120 | 235 | 1.3 | 0.18 | 2.7
Cc1cc(-c2sc(NC(=O)N3CC4(C3)CC(C)(O)C4)nc2-c2cccc(C#N)c2)cc(C)n1 [Example 6.44, N-[4-(3-Cyanophenyl)-5-(2,6-dimethyl-4-pyridyl)thiazol-2-yl]-6-hydroxy-6-methyl-2-azaspiro[3.3]heptane-2-carboxamide] | 151 | 100 | 299 | 2.4 | 0.4 | 3.1
Cc1cc(-c2sc(NC(=O)N3CCC4(CCOC(=O)N4)CC3)nc2-c2cccc(C#N)c2)cc(C)n1 [Example 6.50, N-[4-(3-Cyanophenyl)-5-(2,6-dimethyl-4-pyridyl)thiazol-2-yl]-2-oxo-3-oxa-1,9-diazaspiro[5.5]undecane-9-carboxamide] | 136 | 190 | 472 | 3.4 | 1.63 | 3.6

Now those with a lower Ki [1], led by results:

Ki [1] [nM] | IC50 [2] [nM] | Ki [3] [nM] | Ki [4] [nM] | Ki [6] [nM] | SMILES | IC50 [5] [nM]
44 | 130 | 438 | 9 | 0.39 | Cc1cc(-c2sc(NC(=O)N3CCN4C(=O)NCCC4C3)nc2-c2cccc(C#N)c2)cc(C)n1 (stereo not drawn) [Example 6.42, N-[4-(3-Cyanophenyl)-5-(2,6-dimethyl-4-pyridyl)thiazol-2-yl]-6-oxo-3,4,7,8,9,9a-hexahydro-1H-pyrazino[1,2-c]pyrimidine-2-carboxamide] | 5
104 | 310 | 183 | 2 | 0.44 | Cc1cc(-c2sc(NC(=O)N3CCC4(CCC(=O)N4)CC3)nc2-c2cccc(C#N)c2)cc(C)n1 [Example 6.45, N-[4-(3-Cyanophenyl)-5-(2,6-dimethyl-4-pyridyl)thiazol-2-yl]-2-oxo-1,8-diazaspiro[4.5]decane-8-carboxamide] | 9.4
96 | 140 | 245 | 1.7 | 1.11 | Cc1cc(-c2sc(NC(=O)N3CC[C@H](C(C)(C)O)C3)nc2-c2cccc(C#N)c2)cc(C)n1 [Example 6.48, (3S)-N-[4-(3-Cyanophenyl)-5-(2,6-dimethyl-4-pyridyl)thiazol-2-yl]-3-(1-hydroxy-1-methyl-ethyl)pyrrolidine-1-carboxamide] | 3.7
